According to publication PMC10126473 (Frontiers in Pharmacology, 2023):
Where “and” joins values, the source holds several entries; their conditions need not be identical. Equal entries are not always repeated. Where two headings read alike, the source gives them in different places.

Legend:
[1] = PBPK model (GastroPlus): simulation and model parameters incl. permeability surface product and scaled metabolic kinetics, human; details: for Liver Vmax: in vivo (scaled)
[2] = Plasma protein binding, equilibrium dialysis (RED device); type: in vitro ADME, human; details: read-out: Fup (unbound fraction in plasma)
Procedure: Plasma protein binding was determined with equilibrium dialysis method using the Rapid Equilibration Dialysis (RED) device (Thermo Fisher Catalog # 90006). The assay was performed using manufacturer’s procedures. Briefly, plasma spiked with a test compound (5 µM) was added to the plasma chamber of the RED device. Blank potassium phosphate buffer (100 mM) was added to the buffer chamber of the RED device and the plate was incubated at 37°C. Aliquots of the buffer and the plasma were taken at 0 and 4 h, and the concentrations of free and bound test compounds were determined using the previously described LC-MS method ([Shah et al., 2016]).

[3] = Metabolic stability and biotransformation in liver microsomes; details: for Liver Vmax: in vitro
Procedure: (§3) The incubation was carried out at 37°C for 15, 30, and 60 min. The reaction in plasma or liver microsomes was quenched by adding 200 μL of cold acetonitrile (containing 100 ng/mL tolbutamide as internal standard).
(§4) The mc was the microsome concentration used in the incubation (0.5 mg/mL). The substrate disappearance half-life (t1/2) was estimated by regression analysis of the semi-logarithmic (ln Conc vs. time) plots. […] The Vmax, in vitro,app, PDN-total and Km for PDN depletion in liver microsomes were estimated by the Michaelis-Menten model using GraphPad Prism version 8.

[4] = PBPK model (GastroPlus): simulation and model parameters incl. permeability surface product and scaled metabolic kinetics, hamster; details: for Liver Vmax / Plasma k: in vivo (scaled)
Procedure: (§1) CL in vitro,app expressed as mL/min/mg microsomes were scaled to the predicted CLintrinsic using scaling factor (SF), microsome level and liver weight as indicated below: CLintrinsic=CLin vitro,app×SF×liver weight×microsome level per gram liver
(§2) All modeling and simulation were carried out using GastroPlus version 9.5 (Simulations Plus Inc., CA). Physiochemical parameters including blood-to-plasma ratio (Rbp), pKa, and logP were predicted by ADMET predictor (Simulations Plus Inc., CA). Physiologies of all species, including organ weights, volumes, tissue compositions, and blood perfusion rates, were generated by the program’s internal module. Tissue intracellular unbound fractions were generated by GastroPlus based on predicted or experimentally determined physiochemical and chemical-biological parameters including pKa, logP, plasma unbound fractions (Fup), Rbp, solubility, and PAMPA permeability. The PBPK model structure is illustrated in Figure 2 and its parameters are summarized in Supplementary Tables S3–6. The default absorption and dissolution model was applied and effective intestine permeability was predicted by a built-in correlation from the experimental PAMPA permeability result. Parameters including partition coefficients in tissue (Kp), CLintrinsic, and permeability surface area product (PStc) were estimated by fitting the model to experimental data using the optimization module in GastroPlus with objective function weights at 1/(y + ŷ)^2, where y is the observed value and ŷ is the predicted value.
Experimental measurements of hamster plasma pharmacokinetics and lung concentrations were used in the model validation.

[5] = Metabolic stability and biotransformation in liver microsomes; details: for Liver Vmax: in vitro; remark: listed apart in the source
Procedure: as §3, §4

[6] = PBPK model (GastroPlus): simulation and model parameters incl. permeability surface product and scaled metabolic kinetics, mouse; details: for Liver Vmax / Plasma k: in vivo (scaled)
Procedure: as §1, §2
Model parameter estimation of all plasma-tissue partition coefficients (Kp) was performed simultaneously using both the IV and PO datasets. […] The experimentally determined pharmacokinetic profiles were compared with the model simulations.

[7] = Metabolic stability and biotransformation in liver microsomes; details: for Liver Vmax: in vitro; remark: listed apart in the source
Procedure: as §3, §4

[8] = Hamster PK and lung concentration study (non-compartmental analysis); details: for half-life: t1/2 Observed; for Tmax: Tmax Observed
Procedure: For the IV group, a single bolus IV dose of 3 mg/kg of PDN was administered to 24 hamsters (3 hamsters per time point). For the PO group, a dose of 30 mg/kg of PDN was administered via oral gavage to 21 hamsters (3 hamsters per time point). The formulation used for both IV and PO was 20% HP-β-CD in water (0.6 mg/mL PDN for IV and 3 mg/mL for PO). All dosing solutions were freshly prepared on the day of dosing. […] After collection, tissues were weighed and frozen. All blood samples were centrifuged at 4°C to obtain plasma. Plasma samples were transferred to tubes preloaded with NaF (final concentration at 5 mM in 200 µL plasma) and stored at −80°C until analysis.
For fat tissue, an additional 3-fold volume of acetonitrile was added to the water homogenate and was vortexed in a shaker for another 30 min.
A 10 μ aliquot of samples, blank controls (blank plasma or tissue homogenates), quality controls (QC), and standards were added into 200 μ acetonitrile solution with 100 ng/mL tolbutamide (internal standard, IS). All samples were then thoroughly shaken for 5 min to precipitate proteins. The samples were centrifuged at 3000 rpm and 4°C for 30 min. The supernatant was injected for UPLC-MS/MS analysis.
The mobile phase consisted of 0.1% formic acid in water (A) and 0.1% formic acid in acetonitrile (B), the flow rate was 600 μL/min. […] All analyses were carried out using a Waters Acquity I-Class UPLC interfaced with a Waters Xevo TQ-S mass spectrometer. The mass spectrometer multiple reaction monitoring (MRM) experiment was operated with an ESI source at negative mode with spray voltage of 1 kV, and temperature of 600°C. Both Q1 and Q3 were set at unit resolution. […] The correlation coefficients of the calibration curves were all greater than 0.99. […] The linear range, precision and accuracy of QCs in various tissues and plasma are shown in Supplementary Table S1 and Supplementary Table S2.
The area under the concentration vs. time curve (AUC) was calculated using the linear trapezoidal method. The terminal rate constant (λ) was obtained from the slope of at least three data points of the apparent terminal phase of the log linear concentration vs. time curve. AUC0–∞ was estimated as the sum of the AUC0–t (where t is the time of the last measurable concentration) and Ct/λ. […] Bioavailability (F) was calculated using ratios of dose-normalized AUC of PO and IV administration.

[9] = conversion to Nc, in vivo, predicted from in vitro liver parameters
[10] = male, LVG golden Syrian, hamster, in vivo, iv, 3 mg/kg
[11] = male, LVG golden Syrian, hamster, in vivo, po, 30 mg/kg
[12] = male, LVG golden Syrian, hamster, in vivo, po, 30 mg/kg, hamsters, PO 30 mg/kg PDN, lung
[13] = male, LVG golden Syrian, hamster, in vivo, po, 30 mg/kg, hamsters, PO 30 mg/kg PDN, plasma

O=C(Nc1ccc([N+](=O)[O-])cc1Cl)c1cc(Cl)ccc1OC(=O)N1CCNCC1 [PDN]
Liver Vmax ([1]; conversion to Nc): 0.0004 mg/s/mg microsomes
Gut Vmax [1, 9]: 0.00001 mg/s/mg microsomes
Liver Vmax ([1]; conversion to Others): 0.0164 mg/s/mg microsomes
fraction unbound at 4 h, 5 µM ([2]; human and rodent (rodent predicted), rodent (predicted) and human plasma): 0.12 to 0.15
fraction unbound at 4 h, 5 µM ([2]; human, human plasma, experimental): 0.152
Liver Vmax ([3]; conversion to Nc, human): 0.0002 mg/s/mg microsomes
Gut Vmax ([3]; conversion to Nc, human, in vitro (in vitro liver parameters)): 0.00024 mg/s/mg microsomes
Liver Vmax ([3]; conversion to Others, human): 0.0106 mg/s/mg microsomes
Vmax in vitro,app, PDN-total ([3]; human liver microsomes): 0.365 ± 0.187 nmol/min/mg
Km ([3]; human, pH 7.4): 33.8 ± 29.1 µM
Liver Vmax ([4]; conversion to Nc): 0.0130 mg/s/mg microsomes
Plasma k ([4]; conversion to Nc): 0.0052 s⁻¹
Gut Vmax [4, 9]: 0.0004 mg/s/mg microsomes
Liver Vmax ([4]; conversion to Others): 0.1649 mg/s/mg microsomes
Plasma k ([4]; conversion to Others): 0.0189 s⁻¹
Liver Vmax ([5]; conversion to Nc, hamster): 0.0085 mg/s/mg microsomes
Gut Vmax ([5]; conversion to Nc, hamster, in vitro (in vitro liver parameters)): 0.0085 mg/s/mg microsomes
Liver Vmax ([5]; conversion to Others, hamster): 0.1059 mg/s/mg microsomes
Vmax in vitro,app, PDN-total ([5]; hamster liver microsomes): 1.238 ± 0.133 nmol/min/mg
Km ([5]; hamster, pH 7.4): 10.8 ± 3.04 µM
Liver Vmax ([6]; conversion to Nc): 0.0015 mg/s/mg microsomes
Plasma k ([6]; conversion to Nc): 0.0067 s⁻¹
Gut Vmax [6, 9]: 0.00004 mg/s/mg microsomes
Liver Vmax ([6]; conversion to Others): 0.2310 mg/s/mg microsomes
Plasma k ([6]; conversion to Others): 0.0080 s⁻¹
Liver Vmax ([7]; conversion to Nc, mouse): 0.00095 mg/s/mg microsomes
Gut Vmax ([7]; conversion to Nc, mouse, in vitro (in vitro liver parameters)): 0.00095 mg/s/mg microsomes
Liver Vmax ([7]; conversion to Others, mouse): 0.1484 mg/s/mg microsomes
Vmax in vitro,app, PDN-total ([7]; mouse liver microsomes): 1.327 ± 0.106 nmol/min/mg
Km ([7]; mouse, pH 7.4): 20.2 ± 3.31 µM
AUC0-∞ Observed ([8]; hamsters, IV 3 mg/kg PDN, lung): 45600 (4266) h*ng/g
AUC0-∞ Observed ([8]; hamsters, PO 30 mg/kg PDN, lung): 462000 (28500) h*ng/g
t1/2 Observed ([8]; hamsters, PO 30 mg/kg PDN, plasma, 30 mg/kg): 1.8 (0.13) h
AUC(0-inf) [8, 10]: 631 ng·h/mL
Kp [8, 10]: 72
Vd [8, 10]: 0.74 L
clearance [8, 10]: 8 mL/min
half-life ([8]; male, LVG golden Syrian, hamster, in vivo, iv, 3 mg/kg, hamsters, IV 3 mg/kg PDN, lung): 1.1 h
half-life ([8]; male, LVG golden Syrian, hamster, in vivo, iv, 3 mg/kg, hamsters, IV 3 mg/kg PDN, plasma): 1.1 h
AUC(0-inf) [8, 11]: 4320 ng·h/mL
CL/F [8, 11]: 11.5 mL/min
Cmax [8, 11]: 98000 ng/g and 1060 ng/mL
Kp [8, 11]: 107
Vd/F [8, 11]: 1.78 L
bioavailability [8, 11]: ~64%
Tmax [8, 12]: 1 h
Tmax [8, 13]: 0.5 h
half-life [8, 12]: 2.3 h
half-life [8, 13]: ~1.8 h
